In PMC5063960, “N-acetylglucosamine sensing by a GCN5-related N-acetyltransferase induces transcription via chromatin histone acetylation in fungi” (Nature Communications, 2016):

Target: T1, Ngs1 (Candida albicans, UniProt A0A1D8PRM0)
T1 construct: full length (963 aa), N-terminal 3xFLAG tag, expressed from NGS1 promoter in C. albicans ngs1 mutant; protein extract
Experiment: GlcNAc-agarose pull-down from protein extract, competition with free GlcNAc, anti-FLAG Western blot
Type: binding
Settings: 100 mM free GlcNAc as competitor; 4 °C overnight; GH3 homology domain site

T1 sequence (A0A1D8PRM0 entry or part of it): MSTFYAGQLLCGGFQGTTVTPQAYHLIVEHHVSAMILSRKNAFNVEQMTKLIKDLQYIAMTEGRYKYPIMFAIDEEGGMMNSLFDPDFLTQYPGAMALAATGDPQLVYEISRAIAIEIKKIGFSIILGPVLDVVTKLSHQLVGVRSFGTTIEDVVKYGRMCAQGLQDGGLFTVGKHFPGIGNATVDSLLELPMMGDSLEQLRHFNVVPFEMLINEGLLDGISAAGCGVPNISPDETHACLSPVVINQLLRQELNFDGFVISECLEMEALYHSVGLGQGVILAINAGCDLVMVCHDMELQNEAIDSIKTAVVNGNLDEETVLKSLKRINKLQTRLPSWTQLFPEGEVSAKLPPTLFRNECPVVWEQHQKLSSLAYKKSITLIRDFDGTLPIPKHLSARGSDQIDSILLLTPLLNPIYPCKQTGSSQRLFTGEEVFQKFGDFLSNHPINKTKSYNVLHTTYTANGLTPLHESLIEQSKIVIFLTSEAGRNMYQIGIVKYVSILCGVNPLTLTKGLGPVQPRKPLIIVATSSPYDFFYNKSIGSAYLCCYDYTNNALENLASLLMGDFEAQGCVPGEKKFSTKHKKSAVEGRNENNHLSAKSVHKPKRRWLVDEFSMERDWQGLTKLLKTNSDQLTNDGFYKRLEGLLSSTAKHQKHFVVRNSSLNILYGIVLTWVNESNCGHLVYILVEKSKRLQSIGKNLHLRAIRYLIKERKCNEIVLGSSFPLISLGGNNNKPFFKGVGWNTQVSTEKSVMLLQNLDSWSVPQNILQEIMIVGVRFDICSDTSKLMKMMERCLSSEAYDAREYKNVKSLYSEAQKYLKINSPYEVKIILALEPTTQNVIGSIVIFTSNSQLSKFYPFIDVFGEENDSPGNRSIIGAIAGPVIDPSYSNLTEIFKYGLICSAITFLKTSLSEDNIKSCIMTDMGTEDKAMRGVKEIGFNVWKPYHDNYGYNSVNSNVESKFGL

In the case of CC(=O)N[C@H]1C(O)O[C@H](CO)[C@@H](O)[C@@H]1O (stereo partly shown) [GlcNAc], the “GlcNAc-agarose pull-down from protein extract, competition with free GlcNAc, ant” value is reported as “The binding of GlcNAc-agarose with FLAG-Ngs1 was greatly reduced when free GlcNAc was added”.
